Experimental data taken from patent US20240336596A1, “PARP7 INHIBITOR AND USE THEREOF” (NOVOSTAR PHARMACEUTICALS, LTD., priority 2022, published 2024).

How the values were obtained:
[1] = Pharmacokinetic study in mice (IV and oral gavage); format: in vivo, CD-1 mice; settings: for clearance / bioavailability / AUC(0-t) / half-life / Cmax: mouse, plasma, male CD-1 mice; for clearance: read-out: CL(iv) (converted); for bioavailability: oral bioavailability, PO 10 mg/kg vs IV 3 mg/kg; for AUClast (plasma exposure) relative to RBN-2397 / drug plasma half-life (T1/2) relative to RBN-2397 / drug clearance (CL(iv)) relative to RBN-2397 / maximum blood concentration (Cmax) relative to RBN-2397: mice; for drug plasma half-life (T1/2) relative to RBN-2397 / drug clearance (CL(iv)) relative to RBN-2397: intravenous administration; for drug clearance (CL(iv)) relative to RBN-2397: fraction of RBN-2397 value
Experimental: Formulation of intravenous and oral gavage administration solutions: The compounds to be tested were dissolved in solutions formulated with 5% DMSO, 10% solutol HS15, and 85% saline.
Dosage (measured as the amount of compound in the administration solution (mg)/mouse body weight (kg)): 3 mg/kg intravenously (IV), 10 mg/kg oral gavage (PO).
A total of 18 CD-1 mice (Shanghai Jihui Experimental Animal Feeding Co., LTD.), male, weight 28-31 g, were fasted for 12 hours and randomly divided into 2 groups (Group A and Group B) with 9 mice in each group. Animals in Group A were given the compound solution by oral gavage at the dose of 10 mg/kg. Animals in Group B were given the compound solution by tail vein injection at the dose of 3 mg/kg, and blank blood was taken before administration. About 110 μL of venous blood was taken from animals in Group A at 0.25 h, 0.5 h, 1 h, 2 h, 4 h, 8 h, and 24 h after administration. About 110 μL of venous blood was taken from animals in Group B at 0.083 h, 0.25 h, 0.5 h, 1 h, 2 h, 4 h, 8 h, and 24 h after administration, and all were placed in test tubes with heparin, centrifuged, and plasma was collected and stored at −70° C. for testing.
AUClast represents the area under the drug time curve from the beginning of the administration time to the last point, that is, the area surrounded by the blood drug concentration curve to the time axis. CL(iv) represents the drug clearance of intravenous administration; T1/2 represents the plasma half-life of the drug, which refers to the time required for half of the drug to be eliminated from the body. Cmax represents the maximum concentration of the drug in the plasma after administration. F % indicates oral bioavailability of the drug.

[2] = biological target: T1, recombinant human PARP7 protein (Homo sapiens, UniProt Q7Z3E1); assay: Inhibition of PARP7 biological enzyme activity (histone-coated plate, Biotin-NAD+, chemiluminescence); format: biochemical; settings: recombinant human PARP7, Biotin-NAD+ substrate
T1 construct: purchased Abcam ab271651
T1 sequence (Q7Z3E1 1-657): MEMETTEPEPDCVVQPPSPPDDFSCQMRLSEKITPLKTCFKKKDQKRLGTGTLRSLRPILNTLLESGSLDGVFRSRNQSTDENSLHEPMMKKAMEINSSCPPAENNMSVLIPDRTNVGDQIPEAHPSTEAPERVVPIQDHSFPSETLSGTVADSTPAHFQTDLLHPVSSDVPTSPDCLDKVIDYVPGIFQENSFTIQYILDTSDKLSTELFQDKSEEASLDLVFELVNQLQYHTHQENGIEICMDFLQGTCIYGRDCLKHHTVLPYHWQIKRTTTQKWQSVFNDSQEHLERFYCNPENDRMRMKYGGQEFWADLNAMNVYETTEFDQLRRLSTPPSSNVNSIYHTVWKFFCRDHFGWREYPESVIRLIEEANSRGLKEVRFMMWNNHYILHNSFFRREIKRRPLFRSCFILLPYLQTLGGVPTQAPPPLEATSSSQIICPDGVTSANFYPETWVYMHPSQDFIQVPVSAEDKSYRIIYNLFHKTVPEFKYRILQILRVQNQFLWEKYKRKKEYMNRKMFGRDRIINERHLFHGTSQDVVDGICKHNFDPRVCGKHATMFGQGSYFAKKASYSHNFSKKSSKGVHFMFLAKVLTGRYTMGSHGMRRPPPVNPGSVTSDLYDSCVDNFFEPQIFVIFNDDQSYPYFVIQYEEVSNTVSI
Experimental: The recombinant human PARP7 protein kit (Abcam, catalog number ab271651) was used for the assay. According to the kit instructions, 30 μL of histone coating solution (1.5 μg/mL) was first applied to the 384 well holes of the reaction plate and coated at 4° C. for 2 hours. Then, the histone coated solution was washed off, and 50 μL sealing buffer was added to each well, and the sealing buffer was washed off after incubation at 25° C. for 60 minutes. 1000 times the concentration of the compound was 10 configured and diluted from 1 mM to 0.05 μM, and the configured compound was transferred to 384-well plates with 25 nL per well using Echo. The final concentration of the compound in the reaction system was 1000 nM, 333.33 nM, 111.11 nM, 37.03 nM, 12.34 nM, 4.11 nM, 1.37 nM, 0.45 nM, 0.15 nM, 0.05 nM, which was used as the test hole. At the same time, 25 nL DMSO was added to the negative control well and the positive control well. The PARP7 enzyme solution with a concentration of 1.67 times was prepared, and the PARP7 enzyme solution was added to the test hole and the positive control hole with 15 μL each, while the negative control hole was added with 15 μL base Buffer, and incubated at 25° C. for 15 minutes. Then 10 μL 2.5 times Biotin-NAD+ substrate solution was added and incubated at 25° C. for 60 min. After the reaction solution was washed off, the 384-well reaction plates were treated with closed buffer solution diluted with streptavidin-HRP (1:500), each well was 30 μL, and incubated at 25° C. for 30 min. After the HRP buffer was washed off, 30 μL HRP chemiluminescent substrate mixture was added to each well, and the luminescence signal (RLU) of each well was detected by Envision. Calculation formula: Inhibition rate %=(average positive control-RLU compound)/(average positive control-average negative control))*100%. The dose-response curves of each compound were fitted by GraphPad Prism 8 to get IC50 values. IC50 values less than 0.01 μM are labeled as “+++”, IC50 values from 0.01 to 0.1 µM are labeled as “++”, and IC50 values greater than 0.1 to 10.0 μM are labeled as “+”.

[3] = tested on: NCI-H1373 cancer cells; assay: NCI-H1373 cancer cell growth inhibition (CellTiter-Glo, 144 hours); format: cell-based; settings: Homo sapiens, 144 hours culture
Procedure, shortened: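 Cells seeded at 3500/well and dosed after 24 h with a 10-point series from 10 μM down to 0.0005 μM (0.2% DMSO). After 144 h, viability was read by CellTiter-Glo luminescence. Growth inhibition was calculated relative to day-0 and solvent-control RLU, and IC50 was obtained from dose-response curve fits.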

Row | clearance ([1]; IV 3 mg/kg) | bioavailability [1] | AUC(0-t) ([1]; IV 3 mg/kg) | half-life ([1]; IV 3 mg/kg) | AUC(0-t) ([1]; PO 10 mg/kg) | Cmax ([1]; PO 10 mg/kg) | IC50 [2] | IC50 [3] | AUClast (plasma exposure) relative to RBN-2397 ([1]; 3 mg/kg intravenous injection) | drug plasma half-life (T1/2) relative to RBN-2397 [1] | drug clearance (CL(iv)) relative to RBN-2397 [1] | AUClast (plasma exposure) relative to RBN-2397 ([1]; oral gavage 10 mg/kg) | maximum blood concentration (Cmax) relative to RBN-2397 ([1]; oral gavage 10 mg/kg) | Compound
1 | 68.3 mL/min/kg | 23.9% | 732 ng·h/mL | 0.2 h | 582 ng·h/mL | 682 ng/mL |  |  |  |  |  |  |  | C[C@@H](COCCC(=O)N1CCN(c2ncc(C(F)(F)F)cn2)CC1)Nc1cn[nH]c(=O)c1C(F)(F)F [RBN-2397, reference compound]
2 | 15.5 mL/min/kg | 61.3% | 3210 ng·h/mL | 1.62 h | 6550 ng·h/mL | 5320 ng/mL | < 10 nM | < 100 nM | about 4.4 times | 8 times | about ⅕ | about 11.3 times | 7.8 times | C[C@@H](CONC(=O)CC1CCN(c2ncc(C(F)(F)F)cn2)CC1)Nc1cn[nH]c(=O)c1C(F)(F)F [Example 17, (S)—N-(2-((6-oxo-5-(trifluoromethyl)-1,6-dihydropyridazin-4-yl)amino)propoxy)-2-(1-(5-(trifluoromethyl)pyrimidin-2-yl)piperidin-4-yl)acetamide]
3 | 17.8 mL/min/kg | 75.9% | 2780 ng·h/mL | 5.55 h | 7060 ng·h/mL | 7230 ng/mL |  | < 100 nM | about 3.8 times | 27.8 times | about ⅕ | ~12.1 times | 10.6 times | C[C@@H](CONC(=O)CC1=CCN(c2ncc(C(F)(F)F)cn2)CC1)Nc1cn[nH]c(=O)c1C(F)(F)F [Example 25, (S)—N-(2-((6-oxo-5-(trifluoromethyl)-1,6-dihydropyridazin-4-yl)amino)propoxy)-2-(1-(5-(trifluoromethyl)pyrimidin-2-yl)-1,2,3,6-tetrahydropyridin-4-yl)acetamide]
4 |  |  |  |  |  |  | < 10 nM | 1000 to 10000 nM |  |  |  |  |  | C[C@@H](/C=N/OCCC1CCN(c2ncc(C(F)(F)F)cn2)CC1)Nc1cn[nH]c(=O)c1C(F)(F)F [Example 14, (S,E)-2-((6-oxo-5-(trifluoromethyl)-1,6-dihydropyridazin-4-yl)amino)propanal O-(2-(1-(5-(trifluoromethyl)pyrimidin-2-yl)piperidin-4-yl)ethyl) oxime]
